Assays:
lymphocyte counts = experiment: Lymphocyte counts over time with laquinimod versus placebo; assay type: in vivo; settings: laquinimod 0.6 mg group vs placebo or baseline, all visits
microglia/macrophages = experiment: Microglial activation in EAE-afflicted mice; assay type: in vivo; settings: spinal cord of EAE-afflicted mice
From the text: Laquinimod inhibited microglial activation in EAE in mice. Transcripts encoding markers of activation of microglia/macrophages were increased in the spinal cord of EAE-afflicted mice and decreased in laquinimod-treated animals, as presented in FIG. 15.

[1] = system: H2TT (primary neuronal culture) cells; experiment: Oxidative glutamate toxicity of H2TT cells; assay type: cell-based; settings: prolonged incubation
oligodendrocytes = settings: inflammatory insults; Rochelle, 2007; cited from earlier work
[2] = DA EAE rats, doses 0.03-0.3 mg/kg; Foster, 2007; cited from earlier work

Compound	lymphocyte counts (lymphocyte counts)	transcripts encoding markers of activation of microglia/macrophages (microglia/macrophages)	oxidative glutamate toxicity [1]	oligodendrocyte survival (oligodendrocytes)	brain/blood ratio [2]
CCN(C(=O)c1c(O)c2c(Cl)cccc2n(C)c1=O)c1ccccc1 [Laquinimod]	remained stable	decreased	protects against oxidative glutamate toxicity	–	–
CCCCCCCCc1ccc(CCC(N)(CO)CO)cc1 [Fingolimod]	–	–	–	did protect oligodendrocytes	about 20

From patent US20160074380A1, “Treatment Of Neurodegenerative Diseases With Combination Of Laquinimod And Fingolimod” (TEVA PHARMACEUTICAL INDUSTRIES LTD., priority 2014, published 2016)
